Molecular target: T1, YgbP/IspD (Escherichia coli, UniProt Q46893)
T1 sequence (Q46893 2-236): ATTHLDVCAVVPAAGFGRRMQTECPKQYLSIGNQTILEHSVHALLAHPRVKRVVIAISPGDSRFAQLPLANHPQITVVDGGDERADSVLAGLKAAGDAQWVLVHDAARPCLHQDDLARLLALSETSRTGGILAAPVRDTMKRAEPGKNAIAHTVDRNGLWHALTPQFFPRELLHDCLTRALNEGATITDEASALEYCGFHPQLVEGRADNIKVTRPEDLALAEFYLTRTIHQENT
Experiment: steady-state inhibition kinetics, malachite green phosphate assay coupled to inorganic pyrophosphatase
Assay type: biochemical

`[N-]=[N+]=NC[C@](O)(CO)[C@H](O)COP(=O)(O)O` [compound 11, MEPN3] was tested. Which Ki did it give?
The Ki was 21 ± 3 µM.

— article PMC6297244, “Synthesis and Kinetic evaluation of an azido analogue of methylerythritol phosphate: a Novel Inhibitor of E. coli YgbP/IspD” (Scientific Reports, 2018)
